Patent US12516060B2, “Solid freebase forms of 5-chloro-2-(4-((2-hydroxy-2-methylpropyl)amino)pyrido[3,4-d]pyridazin-1-yl)phenol for inhibiting NLRP3 and uses thereof” (Ventus Therapeutics U.S., Inc., priority 2023, dated 2026)
“Also recorded” adds a separate entry of the source.

Experiments:
Format in all cases: physicochemical
[1] = Dynamic Vapor Sorption (DVS)
Description: DVS was performed using TA Instruments Q5000SA. The sample (5-15 mg) was loaded into a metallic quartz sample pan, suspended from a microbalance, and exposed to a humidified stream of nitrogen gas. Weight changes were relative to a matching empty reference pan opposite the sample, suspended from the microbalance. The sample was held for a minimum of 10 min at each level and only progressed to the next humidity level if there was <0.002% change in weight between measurements (interval: 5 s) or 45 min had elapsed (for 5-65% RH) or 2 h had elapsed (for 80 and 95% RH). Mass change by DVS is related to hygroscopicity.

[2] = Solid form stability studies, 75% RH at 40° C. for one week (XRPD and HPLC)
Description: Solid form stability studies were performed on Form I-V freebase forms by weighing approximately 10-15 mg of the crystalline material into 4 mL vials and covering with a lab grade task wipe (Kimwipe). These vials were placed inside a stability chamber set at 75%±5% relative humidity (RH) at 40° C.±2° C., where they were left for one week (7 full days). The retrieved material was then analyzed by XRPD and HPLC. In each case, the initial material and tested material were identical by XRPD, with the exception of Form I freebase, where an extra peak at 5.8 °2θ in the initial material was absent after the stability test. HPLC purities of the tested material were essentially unchanged from those of the initial material.

[3] = Second set of competitive slurry experiments (Form V vs Form I and Form II)
Description: A second set of competitive slurry experiments was set up in three solvent systems and two temperatures to assess the relative stability of Form V freebase with respect to Form I freebase and Form II freebase. […] In all samples, the input seed patterns were observed less than 1 min after addition. […] After 7 days, the quantity of Form II freebase remaining in the RT acetonitrile sample was greatly diminished, though Form II freebase was still present in trace quantities.

With `CC(C)(O)CNc1nnc(-c2ccc(Cl)cc2O)c2ccncc12` [Form V freebase, 5-chloro-2-(4-((2-hydroxy-2-methylpropyl)amino)pyrido[3,4-d]pyridazin-1-yl)phenol] the “DVS mass change 5-95% RH (wt. %)” value ([1]; 5-95% RH) was 0.20 wt. %, the “water uptake, weight gain between 5-95% relative humidity (RH)” value ([1]; DVS, 5-95% RH) was “about 0.20%” and the hygroscopicity ([1]; DVS, all adsorbed water lost during the drying cycle) was “slightly, hygroscopic”. For the same compound, the “relative hygroscopicity among the Forms studied by DVS” value ([1]; Forms I-V) was “least hygroscopic”, the “XRPD pre- and post-DVS” value ([1]; form stability after DVS cycle) was “remained unchanged” and the “XRPD (tested material)” value ([2]; 75% ± 5% RH at 40° C. ± 2° C. for 1 week) was “Form V”. For the same compound, the “Purity % a/a (tested material)” value ([2]; HPLC, after 75% ± 5% RH at 40° C. ± 2° C. for 1 week) was 99.60 % a/a, the “Purity % a/a (input material)” value ([2]; HPLC, before stability test) was 99.46 % a/a and the “solid-form and chemical stability at elevated RH” value ([2]; one-week at 75% RH and 40° C.) was “no form change or purity decrease”. The “form observed by XRPD after 3 days” value ([3]; acetonitrile, MeOH, acetone:water (7:3 vol.), RT and 50° C., 3 days) was “the sole form observed in all experiments, except in acetonitrile at RT” and the “relative (thermodynamic) stability vs Form I and Form II” value ([3]; second set of slurries, various solvent systems) was “favored over both Form I and II freebase; also recorded: most thermodynamically stable form studied”.
